| SMILES | melting point [°C] |
| --- | --- |
| COc1cc(CC(=O)N(C)CC(=O)N(CCCN2CCCC2=O)CCC(=O)O)ccc1NC(=O)Nc1ccccc1C | 73 to 76 |
| COc1cc(CC(=O)N(C)CC(=O)N(CCC(=O)O)Cc2ccc(OC)c(OC)c2)ccc1NC(=O)Nc1ccccc1C | 183 to 187 |
